The values below come from PMC8286840, “Identifying SARS-CoV-2 antiviral compounds by screening for small molecule inhibitors of Nsp3 papain-like protease” (Biochemical Journal, 2021).

Assay [1] deals with T1, SARS-CoV-2 PLpro (nsp3 1564–1878) (Severe acute respiratory syndrome coronavirus 2, UniProt P0DTD1). In words: biochemical. The settings on record: high concentration screen, read-out: % of control remaining. More on the design: FRET-quenched peptide (Pro3) cleavage by PLpro, 10 min pre-incubation, slope over 20 min, normalised to no-compound control.
For assay [2], the target named is T1, SARS-CoV-2 PLpro (nsp3 1564–1878). In words: biochemical. More on the design: FRET-quenched peptide (Pro3) cleavage by PLpro, 10 min pre-incubation, slope over 20 min, normalised to no-compound control. To be noted: low concentration screen, read-out: % of control remaining.

Where a name gives a salt, the structure may show the parent alone. Read-outs that look alike come from different tables or passages of the source. Where a SMILES comes first, the peptide text is derived from it.

On to `Cc1cc(=O)n(-c2ccccc2)n1C` [Antipyrine], for which, in assay [1] (Well no.=5024), the remaining activity at 3.75 µM came out at 100%. The remaining activity at 1.25 µM in assay [2] (Well no.=5024) was 96.5%.

For the compound `c1ccc(CN(Cc2ncc[nH]2)c2ccccc2)cc1` [Antozoline hydrochloride], the remaining activity at 3.75 µM in assay [1] (Well no.=108) was found to be 103%. In assay [2] (Well no.=108), the remaining activity at 1.25 µM is 101%.

As to `N#CC1(c2ccc(NC(=O)c3cccnc3NCc3ccncc3)cc2)CCCC1` [Apatinib (YN968D1)], in assay [1] (Well no.=5156), the remaining activity at 3.75 µM turned out to be 102%. The remaining activity at 1.25 µM in assay [2] (Well no.=5156) came out at 101%.

As to `C[C@@]1(CO)[C@H](O)CC[C@@]2(C)[C@H]1CC[C@H]1C[C@@H]3C[C@@]12CC[C@]3(O)CO` [Aphidicolin], the remaining activity at 3.75 µM in assay [1] (Well no.=3476) came out at 101%. For the same compound, in assay [2] (Well no.=3476), the remaining activity at 1.25 µM was 104%.

Regarding `O=c1cc(-c2ccc(O)cc2)oc2cc(O[C@@H]3O[C@H](CO)[C@@H](O)[C@H](O)[C@H]3O)cc(O)c12` [Apigenin-7-glucoside], in assay [1] (Well no.=3635), the remaining activity at 3.75 µM was 93.3%. In addition, the remaining activity at 1.25 µM in assay [2] (Well no.=3635) was found to be 97.8%.

Turning to `O=c1cc(-c2ccc(O)cc2)oc2cc(O)cc(O)c12` [Apigenin], the remaining activity at 3.75 µM in assay [1] (Well no.=299) was 93.2%; in assay [1] (Well no.=3234), 94.9%; in assay [1] (Well no.=3909) it was 96.7%. Further, the values for the remaining activity at 1.25 µM in assay [2] (Well no.=299), in assay [2] (Well no.=3234) and in assay [2] (Well no.=3909) were 93.8%, 99.1% and 101%, respectively.

In the case of `COc1ccc(-n2nc(C(N)=O)c3c2C(=O)N(c2ccc(N4CCCCC4=O)cc2)CC3)cc1` [Apixaban], the remaining activity at 3.75 µM in assay [1] (Well no.=5331) was found to be 100%. The remaining activity at 1.25 µM in assay [2] (Well no.=5331) was found to be 99.7%.

In the case of `CN1CCc2cccc3c2[C@H]1Cc1ccc(O)c(O)c1-3` [Apomorphine hydrochloride hemihydrate], the remaining activity at 3.75 µM in assay [1] (Well no.=349) is 103%. In addition, the remaining activity at 1.25 µM in assay [2] (Well no.=349) amounted to 99.6%.

For `O=C1C(=O)N(Cc2ccc(Cl)c(Cl)c2)c2ccccc21` [Apoptosis Activator 2], the remaining activity at 3.75 µM in assay [1] (Well no.=5259) came to 95.7%. Further, the remaining activity at 1.25 µM in assay [2] (Well no.=5259) amounted to 98.8%.

Take `COc1ccc(-c2nc(-c3cc(C(F)(F)F)cc(C(F)(F)F)c3)n(Cc3ccc(C(N)=O)cc3)c2-c2ccc(OC)cc2)cc1` [Apoptozole]: the values for the remaining activity at 3.75 µM in assay [1] (Well no.=6596) and in assay [1] (Well no.=8536) were 92.9% and 90.1%, respectively. In addition, the values for the remaining activity at 1.25 µM in assay [2] (Well no.=6596) and in assay [2] (Well no.=8536) were 102% and 98.3%, respectively.

Take `CN[C@@H]1[C@@H](O[C@H]2O[C@H](CO)[C@@H](N)[C@H](O)[C@H]2O)O[C@H]2C[C@@H](N)[C@@H](O[C@H]3[C@H](O)[C@@H](O)[C@H](N)C[C@@H]3N)O[C@@H]2[C@@H]1O` [Apramycin]: the remaining activity at 3.75 µM in assay [1] (Well no.=2127) was found to be 102%. Also, the remaining activity at 1.25 µM in assay [2] (Well no.=2127) turned out to be 99.8%.

As to `CCOc1cc([C@@H](CS(C)(=O)=O)N2C(=O)c3cccc(NC(C)=O)c3C2=O)ccc1OC` [Apremilast (CC-10004)], in assay [1] (Well no.=5218), the remaining activity at 3.75 µM is 99.8%. Moreover, the remaining activity at 1.25 µM in assay [2] (Well no.=5218) was 97.8%.

With `C[C@@H](O[C@H]1OCCN(Cc2n[nH]c(=O)[nH]2)[C@H]1c1ccc(F)cc1)c1cc(C(F)(F)F)cc(C(F)(F)F)c1` [Aprepitant], the remaining activity at 3.75 µM in assay [1] (Well no.=2244) came to 99.9%; in assay [1] (Well no.=6703), 97.7%. For the same compound, the remaining activity at 1.25 µM was 98.3% in assay [2] (Well no.=2244) and 102% in assay [2] (Well no.=6703).

Turning to `CCCCC/C=C\C/C=C\C/C=C\C/C=C\CCCC(N)=O` [Arachidonamide], the remaining activity at 3.75 µM in assay [1] (Well no.=4336) was 104%. Further, the remaining activity at 1.25 µM in assay [2] (Well no.=4336) amounted to 108%.

Regarding `CCCCC/C=C\C/C=C\C/C=C\C/C=C\CCCC(=O)O` [Arachidonic acid], the results for the remaining activity at 3.75 µM in assay [1] (Well no.=4301) and in assay [1] (Well no.=4446) were 101% and 97.5%, respectively. For the same compound, the remaining activity at 1.25 µM in assay [2] (Well no.=4301) worked out at 104%; in assay [2] (Well no.=4446) it was 95.8%.

As to `CCOC(=O)c1c(CSc2ccccc2)n(C)c2cc(Br)c(O)c(CN(C)C)c12` [Arbidol HCl], the remaining activity at 3.75 µM in assay [1] (Well no.=5098) came out at 107%. For the same compound, the remaining activity at 1.25 µM in assay [2] (Well no.=5098) was found to be 104%.

Turning to `OC[C@H]1O[C@@H](Oc2ccc(O)cc2)[C@H](O)[C@@H](O)[C@@H]1O` [Arbutin], the remaining activity at 3.75 µM in assay [1] (Well no.=3478) amounted to 101%. The remaining activity at 1.25 µM in assay [2] (Well no.=3478) worked out at 103%.

As for `NC(N)=NCCCCN=C(N)N` [Arcaine sulfate], the remaining activity at 3.75 µM in assay [1] (Well no.=293) came to 96.8%. In assay [2] (Well no.=293), the remaining activity at 1.25 µM came to 99.2%.

For the compound `COc1cc(C[C@H]2C(=O)OC[C@@H]2Cc2ccc(OC)c(OC)c2)ccc1O` [Arctigenin - (3R,4R)-4-[(3,4-Dimethoxyphenyl)methyl]dihydro-3-[(4-hydroxy-3-methoxyphenyl)methyl]-2(3H)-furanone], the remaining activity at 3.75 µM in assay [1] (Well no.=2446) came to 105%. Moreover, in assay [2] (Well no.=2446), the remaining activity at 1.25 µM was found to be 105%.

As for `O=C1NC(=O)c2c1c1c3ccccc3[nH]c1c1[nH]c3ccccc3c21` [Arcyriaflavin A - 12,13-Dihydro-5H-indolo[2,3-a]pyrrolo[3,4-c]carbazole-5,7(6H)-dione], the remaining activity at 3.75 µM in assay [1] (Well no.=2532) stood at 100%. In assay [2] (Well no.=2532), the remaining activity at 1.25 µM was determined as 102%.

For `O=C1NC(=O)c2c1c1c3ccccc3[nH]c1c1[nH]c3ccccc3c21` [Arcyriaflavin A, Synthetic], the remaining activity at 3.75 µM in assay [1] (Well no.=2333) came out at 102%. Besides, the remaining activity at 1.25 µM in assay [2] (Well no.=2333) turned out to be 105%.

On to `C#CCOC(=O)C1=CCCN(C)C1` [Arecaidine propargyl ester hydrobromide], for which the remaining activity at 3.75 µM in assay [1] (Well no.=254) came out at 98.4%. Moreover, in assay [2] (Well no.=254), the remaining activity at 1.25 µM turned out to be 97.1%.

Turning to `NC(N)=NCCC[C@H](N)C(=O)NCC(=O)N[C@@H](CC(=O)O)C(=O)N[C@@H](CS)C(=O)O` [Arg-Gly-Asp-Cys] (H-RGDC-OH), the remaining activity at 3.75 µM in assay [1] (Well no.=8126) was determined as 97.3%. Further, the remaining activity at 1.25 µM in assay [2] (Well no.=8126) was 99.2%.

`NC(N)=NCCC[C@H](N)C(=O)NCC(=O)N[C@@H](CC(=O)O)C(=O)N[C@@H](CO)C(=O)O` [Arg-Gly-Asp-Ser]: in assay [1] (Well no.=7938), the remaining activity at 3.75 µM was determined as 95.3%. Besides, in assay [2] (Well no.=7938), the remaining activity at 1.25 µM amounted to 95.5%.

Regarding `NC(N)=NCCC[C@H](N)C(=O)NCC(=O)N[C@@H](CCC(=O)O)C(=O)N[C@@H](CO)C(=O)O` [Arg-Gly-Glu-Ser(TFA)] (H-RGES-OH), the remaining activity at 3.75 µM in assay [1] (Well no.=7924) is 97.3%. In addition, the remaining activity at 1.25 µM in assay [2] (Well no.=7924) stood at 96.4%.

With `CC1CNc2c(cccc2S(=O)(=O)N[C@@H](CCCNC(=N)N)C(=O)N2CC[C@@H](C)C[C@@H]2C(=O)O)C1` (stereo partly shown) [Argatroban (monohydrate)], the remaining activity at 3.75 µM in assay [1] (Well no.=8454) came out at 101%. Also, in assay [2] (Well no.=8454), the remaining activity at 1.25 µM turned out to be 103%.

As to `CC1CNc2c(cccc2S(=O)(=O)N[C@@H](CCCNC(=N)N)C(=O)N2CC[C@@H](C)C[C@@H]2C(=O)O)C1` (stereo partly shown) [Argatroban], the remaining activity at 3.75 µM in assay [1] (Well no.=2196) is 97.9%. In assay [2] (Well no.=2196), the remaining activity at 1.25 µM is 97.1%.
